Measured values taken from US20230102924A1, “Methods of Treating Cancer Using Checkpoint Inhibitors in Combination with Purine Cleaving Enzymes” (priority 2020, published 2023).
Entries after “also recorded” stand apart in the source; their conditions may differ.

B1: E. coli PNP: E. coli purine nucleoside phosphorylase expressed in the EMT-6-PNP-EMU transduced tumor cell line (protein, UniProt P0ABP8 2-239, looked up)
Purine nucleoside …: ATPHINAEMGDFADVVLMPGDPLRAKYIAETFLEDAREVNNVRGMLGFTGTYKGRKISVMGHGMGIPSCSIYTKELITDFGVKKIIRVGSCGAVLPHVKLRDVVIGMGACTDSKVNRIRFKDHDFAAIADFDMVRNAVDAAKALGIDARVGNLFSADLFYSPDGEMFDVMEKYGILGVEMEAAGIYGVAAEFGAKALTICTVSDHIRTHEQTTAAERQTTFNDMIKIALESVLLGDKE

Experiments:
[1] = test system: EMT-6 tumors that express E. coli PNP; assay: EMT-6 murine breast tumors expressing E. coli PNP (left flank) in mice, fludarabine phosphate plus or minus anti-CTLA4-9H10; type: in vivo, female BALB/c mice
Procedure: (§1) In order to evaluate efficacy, the parental EMT-6-EMU cell line and the EMT-6-PNP-EMU transduced cell line were evaluated. The EMT-6-PNP-EMU transduced cell line and the parental EMT-6-EMU cell line were implanted as shown below in each flank with or without dosing with fludarabine phosphate and/or anti-CTLA-4 antibody using female BALB/c mice.
(§2) Mice were implanted with EMT-6 murine tumors on both the right and left flanks. In groups 1 through 6 the right flanks were implanted with parental (non-PNP) tumors and the left flanks were implanted with tumors expressing E. coli PNP. In groups 7 through 10, both the right and left flanks were injected with parental tumors.

[2] = test system: EMT-6 tumors that do not express E. coli PNP; assay: Parental EMT-6 murine breast tumors (non-PNP) in mice, fludarabine phosphate plus or minus anti-CTLA4-9H10; type: in vivo, female BALB/c mice; conditions: for abscopal effect on a non-PNP tumor of a contralateral PNP tumor regressing due to F-araAMP: F-araAMP 90 mg/kg with anti-CTLA4-9H10
Procedure: as §1, §2

[3] = FIG. 3 and 5, day 15, right flank non-PNP tumors, PNP tumor contralaterally

Molecule	effect on EMT-6 breast tumors that express E. coli PNP ([1]; FIG. 1, groups 1, 2, 4, 5, F-araAMP 75 mg/kg plus or minus anti-CTLA4-9H10, left flank tumors)	effect on EMT-6 tumors that express E. coli PNP ([1]; FIG. 2, groups 1, 3, 4, 6, F-araAMP 90 mg/kg plus or minus anti-CTLA4-9H10, left flank tumors)	PNP/fludarabine phosphate treatment in combination with an anti-CTLA4 antibody ([1]; summary of FIG. 1, 2, 3)	tumor growth, group 4 (anti-CTLA4 alone) versus group 6 (fludarabine 90 mg/kg + anti-CTLA4), all tumors included in the analysis [2, 3]	tumor growth, group 4 (anti-CTLA4 alone) versus group 6 (fludarabine 90 mg/kg + anti-CTLA4), regressed tumors removed from the analysis [2, 3]	augmentation of anti-CTLA4 antibody antitumor activity in non-PNP tumors ([2]; FIG. 3 and 5, groups 1, 3, 4, 6, F-araAMP 90 mg/kg, PNP tumor regressing contralaterally)	augmentation of anti-CTLA4 antibody activity in parental (non-PNP) tumors ([2]; FIG. 4 and 6, groups 7-10, F-araAMP 90 mg/kg, no PNP expression in the animal)	abscopal effect on a non-PNP tumor of a contralateral PNP tumor regressing due to F-araAMP ([2]; FIG. 7)	abscopal effect on a non-PNP tumor of a contralateral PNP tumor regressing due to F-araAMP ([2]; FIG. 7, listed as F-araAMP)	effect of expressing E. coli PNP in a solid breast tumor on activity of checkpoint blockade inhibitors ([1]; summary of experiments)	tumor growth, group 6 (non-PNP right flank tumor, PNP tumor contralaterally) versus group 10 (right) or group 10 (left) ([2]; FIG. 7, day 15, both groups F-araAMP 90 mg/kg + anti-CTLA4-9H10)
Nc1nc(F)nc2c1ncn2[C@@H]1O[C@H](COP(=O)(O)O)[C@@H](O)[C@@H]1O [fludarabine phosphate, 2-fluoro-9-(5-O-phosphono-β-D-arabinofuranosyl)-9H-purin-6-amine]	effective	effective	improve	not significantly different	significantly different	augments	augments; also recorded: enhances	strong abscopal effect; also recorded: inhibits	abscopal effect	–	–
B1	–	–	–	–	–	–	–	–	–	augments	significantly different
